Patent EP0993459B1, “COMPOUNDS USEFUL FOR INHIBITION OF FARNESYL PROTEIN TRANSFERASE” (SCHERING CORPORATION, priority 1997, dated 1998)

Experiments:
[1] = target: farnesyl protein transferase (Homo sapiens, UniProt P49354+P49356); experiment: FPT IC50, inhibition of farnesyl protein transferase, in vitro enzyme assay (procedure of WO 95/10516); assay type: biochemical; conditions: one range stated for the whole group of listed compounds, no individual values
Procedure: (§1) FPT IC50 (inhibition of farnesyl protein transferase, in vitro enzyme assay) and COS Cell IC50 (Cell-Based Assay) were determined following the assay procedures described in WO 95/10516, published April 20, 1995. GGPT IC50 (inhibition of geranylgeranyl protein transferase, in vitro enzyme assay), Cell Mat Assay, and anti-tumor activity (in vivo anti-tumor studies) could be determined by the assay procedures described in WO 95/10516. The disclosure of WO 95/10516 is incorporated herein by reference thereto.

[2] = system: COS Cell; experiment: COS Cell IC50, cell-based assay (procedure of WO 95/10516)
Procedure: as §1

farnesyl protein transferase, sequence (P49356 whole entry, one chain of several): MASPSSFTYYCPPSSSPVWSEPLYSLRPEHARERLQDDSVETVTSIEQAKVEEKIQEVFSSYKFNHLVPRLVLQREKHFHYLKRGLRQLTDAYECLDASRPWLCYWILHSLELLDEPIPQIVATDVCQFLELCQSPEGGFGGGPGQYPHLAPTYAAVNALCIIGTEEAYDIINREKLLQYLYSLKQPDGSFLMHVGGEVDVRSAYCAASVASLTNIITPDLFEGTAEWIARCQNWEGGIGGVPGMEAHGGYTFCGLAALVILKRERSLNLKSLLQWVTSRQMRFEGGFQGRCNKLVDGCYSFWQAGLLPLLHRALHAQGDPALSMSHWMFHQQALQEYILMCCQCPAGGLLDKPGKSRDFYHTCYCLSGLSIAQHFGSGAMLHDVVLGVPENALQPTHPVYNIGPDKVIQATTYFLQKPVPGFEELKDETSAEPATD

Compound | IC50 [1] | IC50 [2]
CON=C1CCN(CC(=O)N2CCC([C@H]3c4ncc(Br)cc4CCc4cc(Cl)cc(Br)c43)CC2)CC1 [Compound 27.0] | ≥ 1.9 nM | –
O=C(CN1CCC2(CC1)SCCS2)N1CCC([C@H]2c3ncc(Br)cc3CCc3cc(Cl)cc(Br)c32)CC1 [Compound 28.0] | ≥ 1.9 nM | –
O=C1CCN(CC(=O)N2CCC([C@H]3c4ncc(Br)cc4CCc4cc(Cl)cc(Br)c43)CC2)CC1 [Compound 14.0] | ≥ 1.9 nM | –
CC(C)(C)OC(=O)N[C@H]1CC[C@@H](C(=O)N2CCC([C@H]3c4ncc(Br)cc4CCc4cc(Cl)cc(Br)c43)CC2)CC1 [Compound 36.0] | ≥ 1.9 nM | –
CS(=O)(=O)N[C@H]1CC[C@@H](C(=O)N2CCC([C@H]3c4ncc(Br)cc4CCc4cc(Cl)cc(Br)c43)CC2)CC1 [Compound 40.0] | ≥ 1.9 nM | –
NC(=O)N[C@H]1CC[C@@H](C(=O)N2CCC([C@H]3c4ncc(Br)cc4CCc4cc(Cl)cc(Br)c43)CC2)CC1 [Compound 38.0] | ≥ 1.9 nM | –
CC(C)(C)OC(=O)NC1CCCC(C(=O)N2CCC([C@H]3c4ncc(Br)cc4CCc4cc(Cl)cc(Br)c43)CC2)C1 (some centres unmarked) [Compound 43.0] | ≥ 1.9 nM | –
CON=C1CCC(C(=O)N2CCC([C@H]3c4ncc(Br)cc4CCc4cc(Cl)cc(Br)c43)CC2)CC1 (some centres unmarked) [Compound 35.0] | ≥ 1.9 nM | –
O=C1CCC(C(=O)N2CCC([C@H]3c4ncc(Br)cc4CCc4cc(Cl)cc(Br)c43)CC2)CC1 [Compound 33.0] | ≥ 1.9 nM | –
O=C1CCC(CC(=O)N2CCC([C@H]3c4ncc(Br)cc4CCc4cc(Cl)cc(Br)c43)CC2)CC1 [Compound 13.0] | ≥ 1.9 nM | –
O=C(C1CCC2(CC1)OCCO2)N1CCC([C@H]2c3ncc(Br)cc3CCc3cc(Cl)cc(Br)c32)CC1 [Compound 34.0] | ≥ 1.9 nM | –
CCOC(=O)C(=O)N[C@H]1CC[C@@H](C(=O)N2CCC([C@H]3c4ncc(Br)cc4CCc4cc(Cl)cc(Br)c43)CC2)CC1 [Compound 39.0] | ≥ 1.9 nM | –
NC(=O)NN=C1CCC(CC(=O)N2CCC([C@H]3c4ncc(Br)cc4CCc4cc(Cl)cc(Br)c43)CC2)CC1 (some centres unmarked) [Compound 29.0] | ≥ 1.9 nM | –
O=C(CC1CCC(=NO)CC1)N1CCC([C@H]2c3ncc(Br)cc3CCc3cc(Cl)cc(Br)c32)CC1 (some centres unmarked) [Compound 23.0] | ≥ 1.9 nM | –
CCOC(=O)C(=O)NC1CCCC(C(=O)N2CCC([C@H]3c4ncc(Br)cc4CCc4cc(Cl)cc(Br)c43)CC2)C1 (some centres unmarked) [Compound 46.0] | ≥ 1.9 nM | –
O=C(CN1CCC2(CC1)OCCO2)N1CCC([C@H]2c3ncc(Br)cc3CCc3cc(Cl)cc(Br)c32)CC1 [Compound 24.0] | ≥ 1.9 nM | –
NC(=O)C(=O)NC1CCCC(C(=O)N2CCC([C@H]3c4ncc(Br)cc4CCc4cc(Cl)cc(Br)c43)CC2)C1 (some centres unmarked) [Compound 49.1] | ≥ 1.9 nM | –
O=C(C=C1CCC2(CC1)OCCO2)N1CCC([C@H]2c3ncc(Br)cc3CCc3cc(Cl)cc(Br)c32)CC1 [Compound 21.0] | ≥ 1.9 nM | –

Compound | IC50 [1] | IC50 [2]
O=C1CCCCC1CC(=O)N1CCC([C@H]2c3ncc(Br)cc3CCc3cc(Cl)cc(Br)c32)CC1 (some centres unmarked) [Compound 18.0] | ≥ 1.9 nM | –
CC(=O)NN=C1CCC(CC(=O)N2CCC([C@H]3c4ncc(Br)cc4CCc4cc(Cl)cc(Br)c43)CC2)CC1 (some centres unmarked) [Compound 30.0] | ≥ 1.9 nM | –
NC(=O)NC1CCCC(C(=O)N2CCC([C@H]3c4ncc(Br)cc4CCc4cc(Cl)cc(Br)c43)CC2)C1 (some centres unmarked) [Compound 45.0] | ≥ 1.9 nM | –
CC(C)(C)[Si](C)(C)OCCON=C1CCC(CC(=O)N2CCC([C@H]3c4ncc(Br)cc4CCc4cc(Cl)cc(Br)c43)CC2)CC1 (some centres unmarked) [Compound 32.0] | ≥ 1.9 nM | –
NC1CCCC(C(=O)N2CCC([C@H]3c4ncc(Br)cc4CCc4cc(Cl)cc(Br)c43)CC2)C1 (some centres unmarked) [Compound 44.0] | ≥ 1.9 nM | –
O=C1CCC(=CC(=O)N2CCC([C@H]3c4ncc(Br)cc4CCc4cc(Cl)cc(Br)c43)CC2)CC1 [Compound 16.0] | ≥ 1.9 nM | –
CON=C1CCC(CC(=O)N2CCC([C@H]3c4ncc(Br)cc4CCc4cc(Cl)cc(Br)c43)CC2)CC1 (some centres unmarked) [Compound 25.0] | ≥ 1.9 nM | –
C[C@]1(CCC(=O)N2CCC([C@H]3c4ncc(Br)cc4CCc4cc(Cl)cc(Br)c43)CC2)CCCCC1=O [Compound 20.0] | ≥ 1.9 nM | –
O=C(CC1CCC2(CC1)OCCO2)N1CCC([C@H]2c3ncc(Br)cc3CCc3cc(Cl)cc(Br)c32)CC1 [Compound 22.0] | ≥ 1.9 nM | –
COc1ccc2c(c1)CC(CC(=O)N1CCC([C@H]3c4ncc(Br)cc4CCc4cc(Cl)cc(Br)c43)CC1)C2=O (single isomer, unassigned) [Compound 17.0A] | ≥ 1.9 nM | –
O=C([C@H]1CC[C@@H](O)CC1)N1CCC([C@H]2c3ncc(Br)cc3CCc3cc(Cl)cc(Br)c32)CC1 [Compound 70.0] | ≥ 1.9 nM | –
O=C1CCCCC1CCC(=O)N1CCC([C@H]2c3ncc(Br)cc3CCc3cc(Cl)cc(Br)c32)CC1 (some centres unmarked) [Compound 19.0] | ≥ 1.9 nM | –
O=C(O)CON=C1CCC(CC(=O)N2CCC([C@H]3c4ncc(Br)cc4CCc4cc(Cl)cc(Br)c43)CC2)CC1 (some centres unmarked) [Compound 31.0] | ≥ 1.9 nM | –
O=C([C@H]1CC[C@H](O)CC1)N1CCC([C@H]2c3ncc(Br)cc3CCc3cc(Cl)cc(Br)c32)CC1 [Compound 68.0] | ≥ 1.9 nM | –
CC(=O)O[C@H]1CC[C@@H](C(=O)N2CCC([C@H]3c4ncc(Br)cc4CCc4cc(Cl)cc(Br)c43)CC2)CC1 [Compound 69.0] | – | 30 nM
N[C@H]1CC[C@@H](C(=O)N2CCC([C@H]3c4ncc(Br)cc4CCc4cc(Cl)cc(Br)c43)CC2)CC1 [Compound 37.0] | ≥ 1.9 nM | –
O=C(CN1CCC(=NO)CC1)N1CCC([C@H]2c3ncc(Br)cc3CCc3cc(Cl)cc(Br)c32)CC1 [Compound 26.0] | ≥ 1.9 nM | –
